{"source": "paper PMC4021102", "about": "“The onset of grapevine berry ripening is characterized by ROS accumulation and lipoxygenase-mediated membrane peroxidation in the skin” (BMC Plant Biology, 2014)", "target": "T1, PnLOXA (Vitis vinifera, UniProt D7SLA9)", "T1 construct": "gene VIT_06s0004g01510", "T1 sequence (D7SLA9 entry or part of it)": "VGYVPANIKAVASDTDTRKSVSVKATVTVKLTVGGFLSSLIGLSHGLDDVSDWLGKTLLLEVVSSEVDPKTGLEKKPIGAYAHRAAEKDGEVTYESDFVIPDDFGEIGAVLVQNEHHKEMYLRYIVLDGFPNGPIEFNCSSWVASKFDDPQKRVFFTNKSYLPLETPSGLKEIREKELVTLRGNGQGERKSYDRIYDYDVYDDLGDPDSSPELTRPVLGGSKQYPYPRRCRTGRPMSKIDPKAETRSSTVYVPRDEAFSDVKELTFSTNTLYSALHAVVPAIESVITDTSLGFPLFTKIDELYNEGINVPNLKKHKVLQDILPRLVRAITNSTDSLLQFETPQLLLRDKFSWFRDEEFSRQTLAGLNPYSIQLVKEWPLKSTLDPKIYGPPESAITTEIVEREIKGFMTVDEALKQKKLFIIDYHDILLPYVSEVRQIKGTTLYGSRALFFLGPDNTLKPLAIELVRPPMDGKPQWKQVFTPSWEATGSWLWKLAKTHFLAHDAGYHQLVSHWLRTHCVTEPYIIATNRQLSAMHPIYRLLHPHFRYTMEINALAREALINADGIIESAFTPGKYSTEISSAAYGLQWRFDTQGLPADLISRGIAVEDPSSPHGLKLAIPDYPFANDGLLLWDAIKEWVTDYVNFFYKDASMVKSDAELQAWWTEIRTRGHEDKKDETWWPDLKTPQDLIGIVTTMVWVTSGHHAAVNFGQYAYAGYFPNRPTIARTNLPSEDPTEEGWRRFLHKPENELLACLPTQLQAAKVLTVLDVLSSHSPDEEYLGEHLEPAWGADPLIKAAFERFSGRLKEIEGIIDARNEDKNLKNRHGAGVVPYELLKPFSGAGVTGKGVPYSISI", "conditions": "0.1 mM substrate, pH 6.5, 25 °C; exclusively 13-product"}
{"smiles": "CC/C=C\\C/C=C\\C/C=C\\CCCCCCCC(=O)O", "note": "[α-linolenic acid]", "values": [{"measurement": "peroxidation product identified by ESI-MS/MS", "result": "PnLOXA catalyzed the regiospecific peroxidation of α-linolenic acid to produce exclusively 13-HOTrE"}]}
